In US9604933B2, “Pyrazolochalcones as potential anticancer agents” (COUNCIL OF SCIENTIFIC AND INDUSTRIAL RESEARCH, priority 2013, dated 2017):

Legend:
[1] = tested on: CCRF-CEM; test: NCI SRB cytotoxicity, leukemia CCRF-CEM; type: cell-based; conditions: Homo sapiens, 48 h exposure
Description: (§1) The pyrazolochalcones (7e, 8e, 10e, 11e, 12e, 13e and 8f) have been tested against fifty nine human tumor cell lines derived from nine cancer types (leukemia, non-small cell lung cancer, colon cancer, CNS cancer, melanoma, ovarian cancer, renal cancer, prostate cancer and breast cancer) as per the NCI protocol. For each compound, dose response curves for individual cell lines have been measured at a minimum of five concentrations at 10 fold dilutions. A protocol of 48 h continuous drug exposure has been used, and a sulforhodamine B (SRB) protein assay has been used to estimate cell viability or growth. The concentration for 50% cell growth inhibition (GI50), 50% cell death (LC50, 50% growth) and total cell growth inhibition (TGI, 0% growth) values were tabulated (Table-1). DMSO was used as control to calculate the values of GI50, LC50 and TGI. The compounds 7e, 8e, 10e, 11e, 12e, 13e and 8f has been evaluated for their in vitro cytotoxicity in […] cell lines from nine human cancer types of leukemia (K-562, SR), non-small cell lung (Hop-62, NCI-H226, NCI-H522), colon (HCT-116, HCT-15, HCC-2998), CNS (SF-539), melanoma (SK-MEL-5, UACC-62, M14), ovarian (IGROV1), renal (A498), prostate (PC3) and breast (BT-549, MDA-MB-435, HS578T) origin. The results are expressed as percent of cell growth determined relative to that of untreated control cells (Table 2).

[2] = tested on: HL-60(TB); test: NCI SRB cytotoxicity, leukemia HL-60(TB); type: cell-based; conditions: Homo sapiens, 48 h exposure
Description: as §1

[3] = tested on: MOLT-4; test: NCI SRB cytotoxicity, leukemia MOLT-4; type: cell-based; conditions: Homo sapiens, 48 h exposure
Description: as §1

[4] = tested on: A549/ATCC; test: NCI SRB cytotoxicity, non-small cell lung A549/ATCC; type: cell-based; conditions: Homo sapiens, 48 h exposure
Description: as §1

[5] = tested on: NCI-H226; test: NCI SRB cytotoxicity, non-small cell lung NCI-H226; type: cell-based; conditions: Homo sapiens, 48 h exposure
Description: as §1

[6] = tested on: NCIH322M; test: NCI SRB cytotoxicity, non-small cell lung NCIH322M; type: cell-based; conditions: Homo sapiens, NCI-H322M, 48 h exposure
Description: as §1

[7] = tested on: NCI-H522; test: NCI SRB cytotoxicity, non-small cell lung NCI-H522; type: cell-based; conditions: Homo sapiens, 48 h exposure
Description: as §1

[8] = tested on: COLO-205; test: NCI SRB cytotoxicity, colon COLO-205; type: cell-based; conditions: Homo sapiens, 48 h exposure
Description: as §1

[9] = tested on: HCT-116; test: NCI SRB cytotoxicity, colon HCT-116; type: cell-based; conditions: Homo sapiens, 48 h exposure
Description: as §1

[10] = tested on: HT29; test: NCI SRB cytotoxicity, colon HT29; type: cell-based; conditions: Homo sapiens, HT-29, 48 h exposure
Description: as §1

[11] = tested on: SW-620; test: NCI SRB cytotoxicity, colon SW-620; type: cell-based; conditions: Homo sapiens, 48 h exposure
Description: as §1

[12] = tested on: SF-268; test: NCI SRB cytotoxicity, CNS SF-268; type: cell-based; conditions: Homo sapiens, 48 h exposure
Description: as §1

[13] = tested on: SF-539; test: NCI SRB cytotoxicity, CNS SF-539; type: cell-based; conditions: Homo sapiens, 48 h exposure
Description: as §1

[14] = tested on: SNB-19; test: NCI SRB cytotoxicity, CNS SNB-19; type: cell-based; conditions: Homo sapiens, 48 h exposure
Description: as §1

[15] = tested on: LOX IMVI; test: NCI SRB cytotoxicity, melanoma LOX IMVI; type: cell-based; conditions: Homo sapiens, 48 h exposure
Description: as §1

[16] = tested on: MALME-3M; test: NCI SRB cytotoxicity, melanoma MALME-3M; type: cell-based; conditions: Homo sapiens, 48 h exposure
Description: as §1

[17] = tested on: M14; test: NCI SRB cytotoxicity, melanoma M14; type: cell-based; conditions: Homo sapiens, 48 h exposure
Description: as §1

[18] = tested on: SK-MEL-28; test: NCI SRB cytotoxicity, melanoma SK-MEL-28; type: cell-based; conditions: Homo sapiens, 48 h exposure
Description: as §1

[19] = tested on: SK-MEL-5; test: NCI SRB cytotoxicity, melanoma SK-MEL-5; type: cell-based; conditions: Homo sapiens, 48 h exposure
Description: as §1

[20] = tested on: UACC-62; test: NCI SRB cytotoxicity, melanoma UACC-62; type: cell-based; conditions: Homo sapiens, 48 h exposure
Description: as §1

[21] = tested on: OVCAR-3; test: NCI SRB cytotoxicity, ovarian OVCAR-3; type: cell-based; conditions: Homo sapiens, 48 h exposure
Description: as §1

[22] = tested on: NCI/ADR-RES; test: NCI SRB cytotoxicity, ovarian NCI/ADR-RES; type: cell-based; conditions: Homo sapiens, 48 h exposure
Description: as §1

[23] = tested on: A498; test: NCI SRB cytotoxicity, renal A498; type: cell-based; conditions: Homo sapiens, 48 h exposure
Description: as §1

[24] = tested on: ACHN; test: NCI SRB cytotoxicity, renal ACHN; type: cell-based; conditions: Homo sapiens, 48 h exposure
Description: as §1

[25] = tested on: CAKI-1; test: NCI SRB cytotoxicity, renal CAKI-1; type: cell-based; conditions: Homo sapiens, 48 h exposure
Description: as §1

[26] = tested on: RXF 393; test: NCI SRB cytotoxicity, renal RXF 393; type: cell-based; conditions: Homo sapiens, 48 h exposure
Description: as §1

[27] = tested on: SN12C; test: NCI SRB cytotoxicity, renal SN12C; type: cell-based; conditions: Homo sapiens, 48 h exposure
Description: as §1

[28] = tested on: TK-10; test: NCI SRB cytotoxicity, renal TK-10; type: cell-based; conditions: Homo sapiens, 48 h exposure
Description: as §1

[29] = tested on: UO-31; test: NCI SRB cytotoxicity, renal UO-31; type: cell-based; conditions: Homo sapiens, 48 h exposure
Description: as §1

[30] = tested on: PC-3; test: NCI SRB cytotoxicity, prostate PC-3; type: cell-based; conditions: Homo sapiens, 48 h exposure
Description: as §1

[31] = tested on: BT-549; test: NCI SRB cytotoxicity, breast BT-549; type: cell-based; conditions: Homo sapiens, 48 h exposure
Description: as §1

[32] = tested on: T-47D; test: NCI SRB cytotoxicity, breast T-47D; type: cell-based; conditions: Homo sapiens, T47D, 48 h exposure
Description: as §1

[33] = tested on: Leukemia; test: NCI SRB cytotoxicity, leukemia panel average; type: cell-based, human; conditions: average of cell lines
Description: as §1
(§2) Each cancer type represents the average of six to eight different cancer cell lines.

[34] = tested on: Colon; test: NCI SRB cytotoxicity, colon panel average; type: cell-based, human; conditions: average of cell lines
Description: as §1, §2

[35] = tested on: CNS; test: NCI SRB cytotoxicity, CNS panel average; type: cell-based, human; conditions: average of cell lines
Description: as §1, §2

[36] = tested on: Melanoma; test: NCI SRB cytotoxicity, melanoma panel average; type: cell-based, human; conditions: average of cell lines
Description: as §1, §2

[37] = tested on: Ovarian; test: NCI SRB cytotoxicity, ovarian panel average; type: cell-based, human; conditions: average of cell lines
Description: as §1, §2

[38] = tested on: Prostate; test: NCI SRB cytotoxicity, prostate panel average; type: cell-based, human; conditions: average of cell lines
Description: as §1, §2

[39] = tested on: Breast; test: NCI SRB cytotoxicity, breast panel average; type: cell-based, human; conditions: average of cell lines
Description: as §1, §2

[40] = Homo sapiens, read-out: Log10 GI50 (concentration in mol/L causing 50% growth inhibition) (converted)
[41] = Homo sapiens, read-out: Log10 LC50 (concentration in mol/L causing 50% cell death) (converted)

Compound `COc1ccc(C(=O)/C=C/c2cc(-c3cc(OC)c(OC)c(OC)c3)n[nH]2)cc1` [7e, (E)-1-(4-methoxyphenyl)-3-(3-(3,4,5-trimethoxyphenyl)-1H-pyrazol-5-yl)prop-2-en-1-one] has a GI50 [1] of 1420 nM, a GI50 [2] of 2160 nM and a GI50 [3] of 2670 nM. The GI50 [4] was 2270 nM, the GI50 [5] was 1890 nM and the GI50 [6] was 1920 nM. It also gave a GI50 [7] of 1470 nM, a GI50 [8] of 1730 nM and a GI50 [9] of 1730 nM. It also gave a GI50 [10] of 1970 nM, a GI50 [11] of 1620 nM and a GI50 [12] of 1990 nM. For the same compound, the GI50 [13] was 1620 nM, the GI50 [14] was 1510 nM and the GI50 [15] was 1580 nM. For the same compound, the GI50 [16] was 1860 nM, the GI50 [17] was 2200 nM and the GI50 [18] was 2120 nM. It also gave a GI50 [19] of 1720 nM, a GI50 [20] of 1850 nM and a GI50 [21] of 1740 nM. For the same compound, the GI50 [22] was 2700 nM, the GI50 [23] was 1740 nM and the GI50 [24] was 1960 nM. For the same compound, the GI50 [25] was 2340 nM, the GI50 [26] was 1270 nM and the GI50 [27] was 1810 nM. For the same compound, the GI50 [28] was 2220 nM, the GI50 [29] was 1450 nM and the GI50 [30] was 1510 nM. The GI50 [31] was 1860 nM, the GI50 [32] was 2310 nM and the GI50 [33, 40] was 1200 nM. The CC50 [33, 41] was 0.0001 mol/L, the “Log10 TGI (concentration in mol/L causing total growth inhibition (0% growth))” value [33] was −5.18 mol/L and the GI50 [34, 40] was 1740 nM. The LC50 [34, 41] was 19.1 µM, the “Log10 TGI (concentration in mol/L causing total growth inhibition)” value [34] was −5.41 mol/L and the GI50 [35, 40] was 1660 nM. For the same compound, the LC50 [35, 41] was 24.5 µM, the “Log10 TGI (concentration in mol/L causing total growth inhibition (0% growth))” value [35] was −5.46 mol/L and the GI50 [36, 40] was 2090 nM. The LC50 [36, 41] was 36.3 µM, the “Log10 TGI (concentration in mol/L causing total growth inhibition)” value [36] was −5.32 mol/L and the GI50 [37, 40] was 2400 nM. The CC50 [37, 41] was 47.9 µM, the “Log10 TGI (concentration in mol/L causing total growth inhibition (0% growth))” value [37] was −5.15 mol/L and the GI50 [38, 40] was 1480 nM. The “Log10 TGI (concentration in mol/L causing total growth inhibition (0% growth))” value [38] was −5.55 mol/L, the GI50 [39, 40] was 1910 nM and the CC50 [39, 41] was 33.9 µM. For the same compound, the “Log10 TGI (concentration in mol/L causing total growth inhibition (0% growth))” value [39] was −5.08 mol/L.
